Results as given in PubChem BioAssay (NCI).
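96-well plates; 48 h exposure; 5 concentrations. Endpoints by linear interpolation between flanking doses. Not reached: highest tested concentration assigned. The concentration for 50% growth inhibition is given as GI50. Definition used: TGI = concentration required for complete inhibition of growth.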

Columns and labels:
Assay in all cases: NCI tumour cell line growth inhibition, 48 h
786-0 renal = tested on: 786-0 renal
A498 renal = tested on: A498 renal
A549 NSCLC = tested on: A549 NSCLC
ACHN renal = tested on: ACHN renal
BT-549 breast = tested on: BT-549 breast
CAKI-1 renal = tested on: CAKI-1 renal
CCRF-CEM leukemia = tested on: CCRF-CEM leukemia
COLO 205 colon = tested on: COLO 205 colon
DU-145 prostate = tested on: DU-145 prostate
EKVX NSCLC = tested on: EKVX NSCLC
HCC-2998 colon = tested on: HCC-2998 colon
HCT-116 colon = tested on: HCT-116 colon
HCT-15 colon = tested on: HCT-15 colon
HL-60(TB) leukemia = tested on: HL-60(TB) leukemia
HOP-62 NSCLC = tested on: HOP-62 NSCLC
HOP-92 NSCLC = tested on: HOP-92 NSCLC
HS 578T breast = tested on: HS 578T breast
HT29 colon = tested on: HT29 colon
IGROV1 ovarian = tested on: IGROV1 ovarian
K-562 leukemia = tested on: K-562 leukemia
KM12 colon = tested on: KM12 colon
LOX IMVI melanoma = tested on: LOX IMVI melanoma
M14 melanoma = tested on: M14 melanoma
MALME-3M melanoma = tested on: MALME-3M melanoma
MCF7 breast = tested on: MCF7 breast
MDA-MB-231 breast = tested on: MDA-MB-231 breast
MDA-MB-435 = tested on: MDA-MB-435
MOLT-4 leukemia = tested on: MOLT-4 leukemia
NCI-H226 lung = tested on: NCI-H226 lung
NCI-H23 lung = tested on: NCI-H23 lung
NCI-H460 lung = tested on: NCI-H460 lung
NCI-H522 lung = tested on: NCI-H522 lung
NCI/ADR-RES ovarian = tested on: NCI/ADR-RES ovarian
OVCAR-3 ovarian = tested on: OVCAR-3 ovarian
OVCAR-4 ovarian = tested on: OVCAR-4 ovarian
OVCAR-5 ovarian = tested on: OVCAR-5 ovarian
OVCAR-8 ovarian = tested on: OVCAR-8 ovarian
PC-3 prostate = tested on: PC-3 prostate
RPMI-8226 leukemia = tested on: RPMI-8226 leukemia
RXF 393 renal = tested on: RXF 393 renal
SF-268 CNS = tested on: SF-268 CNS
SF-295 CNS = tested on: SF-295 CNS
SF-539 CNS = tested on: SF-539 CNS
SK-MEL-2 melanoma = tested on: SK-MEL-2 melanoma
SK-MEL-28 melanoma = tested on: SK-MEL-28 melanoma
SK-MEL-5 melanoma = tested on: SK-MEL-5 melanoma
SK-OV-3 ovarian = tested on: SK-OV-3 ovarian
SN12C renal = tested on: SN12C renal
SNB-19 CNS = tested on: SNB-19 CNS
SNB-75 CNS = tested on: SNB-75 CNS
SR leukemia = tested on: SR leukemia
SW-620 colon = tested on: SW-620 colon
T-47D breast = tested on: T-47D breast
TK-10 renal = tested on: TK-10 renal
U251 CNS = tested on: U251 CNS
UACC-257 melanoma = tested on: UACC-257 melanoma
UACC-62 melanoma = tested on: UACC-62 melanoma
UO-31 renal = tested on: UO-31 renal

In the case of `CNCCN(C)c1ccc(Nc2cc(NC3CC3)n3ncc(C#N)c3n2)cc1NC(C)=O`, the GI50 (786-0 renal) is reported as 43.6 nM, the TGI (786-0 renal) is reported as 13500 nM and the GI50 (A498 renal) is reported as less than 11.7 nM. For the same molecule, the TGI (A498 renal) was less than 26 nM, the GI50 (A549 NSCLC) was 18.8 nM and the TGI (A549 NSCLC) was 12500 nM. For the same molecule, the GI50 (ACHN renal) was 73 nM, the TGI (ACHN renal) was 15400 nM and the GI50 (BT-549 breast) was less than 14 nM. The TGI (BT-549 breast) was 165 nM, the GI50 (CAKI-1 renal) was 12.3 nM and the TGI (CAKI-1 renal) was 153 nM. For the same molecule, the GI50 (CCRF-CEM leukemia) was less than 10 nM, the TGI (CCRF-CEM leukemia) was 6000 nM and the GI50 (COLO 205 colon) was less than 10 nM. For the same molecule, the TGI (COLO 205 colon) was 2330 nM, the GI50 (DU-145 prostate) was 45.2 nM and the TGI (DU-145 prostate) was greater than 100000 nM. It also gave a GI50 (EKVX NSCLC) of less than 13 nM, a TGI (EKVX NSCLC) of 4040 nM and a GI50 (HCC-2998 colon) of 17.5 nM. For the same molecule, the TGI (HCC-2998 colon) was 16400 nM, the GI50 (HCT-116 colon) was less than 10 nM and the TGI (HCT-116 colon) was 195 nM. The GI50 (HCT-15 colon) was 290 nM, the TGI (HCT-15 colon) was greater than 100000 nM and the GI50 (HL-60(TB) leukemia) was less than 10 nM. The TGI (HL-60(TB) leukemia) was 498 nM, the GI50 (HOP-62 NSCLC) was 27.5 nM and the TGI (HOP-62 NSCLC) was greater than 54400 nM. For the same molecule, the GI50 (HOP-92 NSCLC) was less than 10 nM, the TGI (HOP-92 NSCLC) was 46.6 nM and the GI50 (HS 578T breast) was less than 10 nM. The TGI (HS 578T breast) was 117 nM, the GI50 (HT29 colon) was less than 10 nM and the TGI (HT29 colon) was greater than 100000 nM. It also gave a GI50 (IGROV1 ovarian) of less than 10.7 nM, a TGI (IGROV1 ovarian) of 961 nM and a GI50 (K-562 leukemia) of less than 13.8 nM. The TGI (K-562 leukemia) was greater than 40100 nM, the GI50 (KM12 colon) was 25.9 nM and the TGI (KM12 colon) was greater than 80100 nM. It also gave a GI50 (LOX IMVI melanoma) of 20.4 nM, a TGI (LOX IMVI melanoma) of 390 nM and a GI50 (M14 melanoma) of less than 11.8 nM. The TGI (M14 melanoma) was 452 nM, the GI50 (MALME-3M melanoma) was 16.6 nM and the TGI (MALME-3M melanoma) was 3180 nM. For the same molecule, the GI50 (MCF7 breast) was less than 10 nM, the TGI (MCF7 breast) was 1590 nM and the GI50 (MDA-MB-231 breast) was less than 10 nM. It also gave a TGI (MDA-MB-231 breast) of 2170 nM, a GI50 (MDA-MB-435) of 16.1 nM and a TGI (MDA-MB-435) greater than 41100 nM. For the same molecule, the GI50 (MOLT-4 leukemia) was 18.6 nM, the GI50 (NCI-H226 lung) was less than 10 nM and the TGI (NCI-H226 lung) was 1230 nM. For the same molecule, the GI50 (NCI-H23 lung) was less than 10 nM, the TGI (NCI-H23 lung) was 237 nM and the GI50 (NCI-H460 lung) was less than 10 nM. For the same molecule, the TGI (NCI-H460 lung) was 12400 nM, the GI50 (NCI-H522 lung) was less than 10 nM and the TGI (NCI-H522 lung) was 1130 nM. It also gave a GI50 (NCI/ADR-RES ovarian) of 3360 nM, a TGI (NCI/ADR-RES ovarian) greater than 100000 nM and a GI50 (OVCAR-3 ovarian) of less than 10 nM. It also gave a TGI (OVCAR-3 ovarian) of 869 nM, a GI50 (OVCAR-4 ovarian) of less than 10 nM and a TGI (OVCAR-4 ovarian) greater than 39200 nM. The GI50 (OVCAR-5 ovarian) was less than 10 nM, the TGI (OVCAR-5 ovarian) was greater than 28500 nM and the GI50 (OVCAR-8 ovarian) was 59.2 nM. It also gave a TGI (OVCAR-8 ovarian) greater than 100000 nM, a GI50 (PC-3 prostate) of less than 10 nM and a TGI (PC-3 prostate) of 13200 nM. It also gave a GI50 (RPMI-8226 leukemia) of less than 10 nM, a TGI (RPMI-8226 leukemia) of 2640 nM and a GI50 (RXF 393 renal) of 10 nM. The TGI (RXF 393 renal) was 34.2 nM, the GI50 (SF-268 CNS) was 18.2 nM and the TGI (SF-268 CNS) was 16400 nM. The GI50 (SF-295 CNS) was 27.7 nM, the TGI (SF-295 CNS) was 12500 nM and the GI50 (SF-539 CNS) was 14 nM. The TGI (SF-539 CNS) was 2360 nM, the GI50 (SK-MEL-2 melanoma) was 20.2 nM and the TGI (SK-MEL-2 melanoma) was 445 nM. For the same molecule, the GI50 (SK-MEL-28 melanoma) was 39.3 nM, the TGI (SK-MEL-28 melanoma) was 18600 nM and the GI50 (SK-MEL-5 melanoma) was less than 10 nM. It also gave a TGI (SK-MEL-5 melanoma) of 462 nM, a GI50 (SK-OV-3 ovarian) of 35.7 nM and a TGI (SK-OV-3 ovarian) of 668 nM. It also gave a GI50 (SN12C renal) of 75.2 nM, a TGI (SN12C renal) greater than 64200 nM and a GI50 (SNB-19 CNS) of less than 10 nM. The TGI (SNB-19 CNS) was greater than 100000 nM, the GI50 (SNB-75 CNS) was less than 10 nM and the TGI (SNB-75 CNS) was 51.9 nM. For the same molecule, the GI50 (SR leukemia) was less than 10 nM, the TGI (SR leukemia) was 5730 nM and the GI50 (SW-620 colon) was less than 10 nM. It also gave a TGI (SW-620 colon) of 209 nM, a GI50 (T-47D breast) of less than 10 nM and a TGI (T-47D breast) of 1340 nM. The GI50 (TK-10 renal) was less than 10 nM, the TGI (TK-10 renal) was 45.3 nM and the GI50 (U251 CNS) was less than 10 nM. The TGI (U251 CNS) was greater than 100000 nM, the GI50 (UACC-257 melanoma) was 16.3 nM and the TGI (UACC-257 melanoma) was 10700 nM. It also gave a GI50 (UACC-62 melanoma) of 19.5 nM, a TGI (UACC-62 melanoma) of 149 nM and a GI50 (UO-31 renal) of 143 nM. For the same molecule, the TGI (UO-31 renal) was 3790 nM.
